Results reported in PubChem BioAssay AID1322 (NMMLSC, 2008).
Calls of active or inactive are those of the source. How the calls were made is not given here.

biological target: Bcl-2-like protein 1 (Homo sapiens) (UniProt Q07817); assay: Bim-Bcl-XL interaction inhibitors, potency, dose response, biochemical, multiplexed, bead flow cytometry, human Bcl-XL (AID 1322); details: Bead-based flow cytometry, Bim peptide-Bcl-XL binding, MCF; on inhibition: test concentration not given here
Sequence (Q07817 whole entry, looked up): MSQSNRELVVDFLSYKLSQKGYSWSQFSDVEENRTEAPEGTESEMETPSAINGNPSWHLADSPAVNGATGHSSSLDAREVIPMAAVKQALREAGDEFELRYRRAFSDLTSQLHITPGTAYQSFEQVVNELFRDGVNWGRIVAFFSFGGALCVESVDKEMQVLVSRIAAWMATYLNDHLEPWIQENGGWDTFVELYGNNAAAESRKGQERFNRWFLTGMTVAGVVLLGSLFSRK

Row | SMILES | outcome
1 | CNC(CC(=O)c1ccc([N+](=O)[O-])cc1)C(Cl)(Cl)Cl (configuration not stated) | inactive
2 | Cc1ccc(C(=O)N(CCCN(C)C)c2nc3ccc(Cl)cc3s2)cc1C | inactive
3 | Clc1ccc(N=c2ssnc2Cl)nc1 | inactive
4 | Cc1ccc(/C=C2/NC(=O)N(Cc3ccccc3)C2=O)o1 | inactive
5 | CCCCc1ccc(NC(=S)NCc2ccc(OC)cc2)cc1 | inactive
6 | Nc1cccc(-c2cn3cccnc3n2)c1 | inactive
7 | COc1ccc(C2CN(C)CC2C(=O)c2ccc(F)cc2)cc1Cl (configuration not stated) | inactive
8 | CCOC(=O)c1nn(-c2ccccc2)c(C#N)c1N | inactive
9 | C=CS(=O)(=O)c1sc(Cl)c(N2CCOCC2)c1[N+](=O)[O-] | inactive
10 | CCN1/C(=C\c2ccc3cc(C)ccc3[n+]2CC)Sc2cc(C)c(C)cc21 | inactive
11 | COC(=O)CSc1nccc(-c2cccs2)n1 | inactive
12 | CC(C)c1ccc(C2CC(c3ccc(Br)cc3)=NN2C(N)=S)cc1 (configuration not stated) | inactive
13 | CS(=O)(=O)NN1C(=O)c2ccccc2NC1c1ccccc1 (configuration not stated) | inactive
14 | CNCc1ccccc1Sc1cc(O)ccc1O | inactive
15 | COc1ccc(-c2csc(NC(=O)/C(N=Nc3ccccc3)=C(\C)O)n2)cc1 | inactive
16 | Cn1cccc1CC(=O)N/N=C\c1ccccc1 | inactive
17 | CSc1n[nH]c2nc3c(c(=O)n12)C1(CCCC1)Cc1ccccc1-3 | inactive
18 | COCCN=c1scc(-c2ccco2)n1/N=C/c1ccc(O)c(O)c1O | inactive
19 | CCOc1ccc(-n2cc(-c3ccc(OC)c(OC)c3)[nH]c2=S)cc1 | inactive

same assay, conditions: Bead-based flow cytometry, Bim peptide-Bcl-XL binding, MCF

Row | SMILES | inhibition
20 | CCC(=O)OCCNc1cc(Sc2nc3ccccc3[nH]2)c2nonc2c1[N+](=O)[O-] | inactive
21 | Cc1cc(-c2csc(N)n2)c(C)n1CCC(C)C | inactive
22 | CS(=O)(=O)NN1C(=O)c2ccccc2NC1c1cccc2cccnc12 (configuration not stated) | inactive
23 | CC(C)NS(=O)(=O)c1ccc(OCC(=O)Nc2ccc(F)cc2)cc1 | inactive
24 | COc1cccc2c(SCC(=O)N/N=C/c3ccccc3)cc(C)nc12 | inactive
25 | O=C(OCc1nc2ccccc2[nH]1)C12CC3CC(CC(C3)C1)C2 | inactive
26 | CCN(CC)c1ccc(NC(=O)c2ccccc2)cc1S(=O)(=O)Nc1ccccc1OC | inactive
27 | CCc1ccc(/C=C/C(=O)c2cc(Br)ccc(=O)c2O)cc1 | inactive
28 | CN(C)C(=O)N1CCC(C(=O)NC2CCCCCCC2)CC1 | inactive
29 | Cc1cc2nc(/C(C#N)=C/c3ccncc3)[nH]c2cc1C | inactive
30 | O=C(Nc1nccs1)c1ccc(COc2ccc(F)cc2)o1 | inactive
31 | CC(=O)OCCCNc1cc(Sc2nc3ccccc3s2)c2nonc2c1[N+](=O)[O-] | inactive
32 | CCOc1cc(C2Nc3cccc4cccc(c34)N2)ccc1O | inactive
33 | O=C(Nc1ccc2nc(-c3ccco3)c(-c3ccco3)nc2c1)NC1CC1 | inactive
34 | O=C1/C(=C\c2ccco2)NC(=S)N1c1ccccc1 | inactive
35 | COC(=O)Cc1ccc(NC(=S)N2CCN(c3cccc(O)c3)CC2)cc1 | inactive
36 | CC1Cc2ccccc2N1C(=O)CSc1nnnn1-c1ccc2c(c1)OCCO2 (configuration not stated) | inactive
37 | CC(=O)N1CCN(C(=O)c2ccc(-n3c(C)ccc3C)cc2)CC1 | inactive
38 | COc1ccc(/C=C2\SC(=O)NC2=S)cc1OC | inactive
39 | O=C(Nc1nnc(SCc2ccccn2)s1)C1CC(=O)N(c2ccccc2)C1 (configuration not stated) | inactive
40 | Cc1cccc(N=C2NC(=O)/C(=C/C=C/c3ccco3)S2)c1C | inactive
41 | O=C(O)c1ccc(NS(=O)(=O)c2ccc3c(c2)C(=O)c2ccccc2C3=O)cc1 | inactive

Row | SMILES | inhibition
42 | CC(C)(C)c1nc(NCCN2CCOCC2)c2nnn(Cc3ccccc3Cl)c2n1 | inactive
43 | Cc1cc(C)cc(NS(=O)(=O)c2ccc3c(c2)c(=O)n(C)c(=O)n3C)c1 | inactive
44 | O=C(/C=C/c1ccc(-c2ccccc2[N+](=O)[O-])o1)c1ccc(F)cc1 | inactive
45 | Cc1cc(Cl)ccc1N=c1ssnc1Cl | inactive
46 | Cc1cccc(-n2c(-c3ccncc3)n[nH]c2=S)c1 | inactive
47 | Cc1cc(C)c[n+](-c2nc3ccccc3nc2C(=C=[N-])C#N)c1 | inactive
48 | C/C(=N\NC(=O)COc1ccc(C#N)cc1)c1ccccc1OC(F)F | inactive
49 | COc1cc(/C=N/NC(=O)c2ccc([N+](=O)[O-])cc2Cl)cc(Br)c1O | inactive
50 | Cc1cccc(-n2c(O)c(/C=N/N3CCOCC3)c(=O)[nH]c2=S)c1 | inactive
51 | NNC(=O)COc1ccccc1F | inactive
52 | Cc1ccc(-c2cc(C(=O)OCC(=O)N(C)C3CCS(=O)(=O)C3)c3ccccc3n2)o1 (configuration not stated) | inactive
53 | Cc1ccccc1/C=N/Nc1ccnc2cc(Cl)ccc12 | inactive
54 | O=S1(=O)N=C(N(CCO)/N=C/c2ccncc2)c2ccccc21 | inactive
55 | COc1ccc(NC(=O)c2ccc(CN3CCN(c4ccccc4)CC3)cc2)cc1 | inactive
56 | CCOC(=O)c1cccc(Nc2ncnc3ccccc23)c1 | inactive
57 | O=C(CSc1ccc(-c2ccccc2)nn1)NCc1ccco1 | inactive
58 | Cc1nonc1NC(=O)CSc1nnc(-c2ccoc2C)n1C | inactive
59 | O=C(/C=C/c1ccc(-c2ccccc2)o1)c1ccccc1 | inactive
60 | Cc1ccc(SCCC(=O)Nc2ccc(Br)c(C)c2)cc1 | inactive
61 | Cc1ccc(O)c(NC2=C(Cl)C(=O)N(Cc3ccccc3)C2=O)c1 | inactive
62 | O=C(O)c1ccc(NC2=C/C(=N/S(=O)(=O)c3ccccc3)c3ccccc3C2=O)cc1 | inactive
63 | O=C(NCc1ccco1)C1CC2CCC1C2 (configuration not stated) | inactive

Row | SMILES | inhibition
64 | CCOc1cc(/C=N/NC(N)=O)ccc1OCC(=O)Nc1ccc(C)c(C)c1 | inactive
65 | O=C(NC1=NCCS1)NC12CC3CC(CC(C3)C1)C2 | inactive
66 | Cc1ccc(/C=C/C(=O)Nc2ccc([N+](=O)[O-])c(NC(=O)/C=C/c3ccc(C)o3)c2)o1 | inactive
67 | COc1ccc(CC(=O)Nc2ccc(-c3nc4cc(C)ccc4o3)c(O)c2)cc1OC | inactive
68 | CCOc1cc(S(=O)(=O)Nc2ccccn2)ccc1F | inactive
69 | COc1cccc(/C=C2/SC(=O)N(C)C2=O)c1OCc1ccc(C(=O)O)cc1 | inactive
70 | CCSc1nnc(NC(=O)c2c(-c3ccccc3Cl)noc2C)s1 | inactive
71 | CC(=O)NC(=O)Nc1sc(=S)n(C)c1C | inactive
72 | Clc1nssc1=Nc1ccccc1 | inactive
73 | O=C1C(Cl)=C(Nc2ccccc2O)C(=O)N1c1ccccc1 | inactive
74 | Cc1cccc(-c2nnc3n2N=C(c2ccccc2)CS3)c1 | inactive
75 | COc1cccc(N2CC(C(=O)Nc3nnc(SCC(=O)c4ccccc4)s3)CC2=O)c1 (configuration not stated) | inactive
76 | Cc1cccn2c(=O)c3cc(C(N)=S)c(=N)n(CCCN4CCOCC4)c3nc12 | inactive
77 | O=[N+]([O-])c1c(NCCO)cc(Sc2nc3ccccc3s2)c2nonc12 | inactive
78 | O=C(NCc1ccccc1)C(=O)Nc1nc(C23CC4CC(CC(C4)C2)C3)cs1 | inactive
79 | COc1ccccc1OCc1ccc(C(=O)Nc2ccccc2F)cc1 | inactive
80 | Cc1cccc(NC(=S)N2CCn3cccc3C2c2cccnc2)c1 (configuration not stated) | inactive
81 | COc1ccc(N2CCN(C(=O)c3cc(=O)[nH]c4ccccc34)CC2)cc1 | inactive
82 | Cc1ccc(-c2cc(-c3ccccc3)c(C#N)c(N)n2)o1 | inactive
83 | CCc1nn2cc(C(=O)c3cc(C)ccc3O)cnc2c1-c1ccc(F)cc1 | inactive
84 | Cc1ccc(C2=N/C(=C/c3cccs3)C(=O)N2Nc2ccccc2)cc1 | inactive
85 | Cc1cc(C)c(S(=O)(=O)/N=C2/C=C(SCC(=O)O)C(=O)c3ccccc32)cc1C | inactive

Row | SMILES | inhibition
86 | O=C(C1=C(Nc2ccccc2)c2ccccc2S(=O)(=O)N1)c1ccccc1 | inactive
87 | CCOc1ccc(C(=O)Nc2nnc(NC(=S)Nc3ccccc3)s2)cc1 | inactive
88 | O=C(COCC(=O)NCc1ccccc1)NCc1ccccc1 | inactive
89 | COc1cc(NC(=O)c2ccc3c(c2)OCO3)ccc1NC(=O)c1ccco1 | inactive
90 | Cc1ccc(NC2=C(Cl)C(=O)c3ccccc3C2=O)cc1 | inactive
91 | Cc1ccc(/C=C/C2=Cc3c(sc(NC(=O)CSc4n[nH]c(N)n4)c3C#N)C(C)(C)C2)o1 | inactive
92 | Cc1ccc2c(c1)C1CN(C)CCC1N2C(=O)Nc1cccc(Cl)c1 (configuration not stated) | inactive
93 | CC(=O)Nc1ccc(NC2=C(Cl)C(=O)c3ccccc3C2=O)cc1 | inactive
94 | O=C(OCC(=O)c1ccc[nH]1)c1ccccc1 | inactive
95 | COc1ccccc1-n1c(-c2ccc(Cl)cc2)c[nH]c1=S | inactive
96 | Cc1ccc(S(=O)(=O)NC(=O)COc2ccccc2C)cc1 | inactive
97 | Cc1cnnn1-c1ccc(C(=O)CCl)cc1 | inactive
98 | COc1ccccc1NC(=O)CSc1nnc(-c2ccco2)n1Cc1ccco1 | inactive
99 | CCC(=O)N(CC)C1=C(O)c2ccccc2C(=O)C1=O | inactive
100 | CN(C)c1ccc(C=C2C(=O)NC(=O)NC2=O)cc1[N+](=O)[O-] | inactive
101 | O=S1(=O)N=C(N(CCO)/N=C/c2ccccc2)c2ccccc21 | inactive
102 | CN(CCCOc1ccccc1Br)Cc1ccccc1 | inactive
103 | C/C(=N\NC(=O)Cc1cccn1C)c1ccc2ccccc2c1 | inactive
104 | C/C(=C\c1ccco1)C1Nc2cccc3cccc(c23)N1 | inactive
105 | COc1ccc(OCCNC(=O)c2ccccc2OCC(=O)N2CCCCC2)cc1 | inactive
106 | COc1cccc(C(=O)/C=C/Nc2ccc(S(=O)(=O)Nc3onc(C)c3C)cc2)c1 | inactive
107 | Cc1ccnc(NS(=O)(=O)c2ccc(NS(=O)(=O)c3cccs3)cc2)n1 | inactive
